Measured values reported in the METLIN SMRT retention time set (Domingo-Almenara et al. 2019).

Assay: gradient 5% acetonitrile 3 min, to 50% in 2 min, to 85% in 15 min, held 3 min, 100 µL/min
Conditions: column: Zorbax Extend-C18 2.1 x 50 mm; eluents: water / acetonitrile, 0.1% formic acid
Summary of the method: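 Pure standards were analyzed in mixtures of ~100 molecules using HPLC coupled to a quadrupole time-of-flight mass spectrometer, in both positive and negative ionization mode. Separation used a Zorbax Extend-C18 column (2.1 × 50 mm, 1.8 μm) at 100 μL/min, with water and acetonitrile each containing 0.1% formic acid. Dead and dwell volumes were 40 μL and 900 μL, and data were collected over 3 months. Retention time was read from computationally picked adduct peaks, each inspected manually.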

Compound	RP-LC retention time [s]
Cc1ccc(Nc2c(-c3ccc(Cl)cc3)nc3ccccn23)cc1	787
Cn1c(SCC(=O)N2CCCc3ccccc32)nc2cc(-c3ccccc3)sc2c1=O	1180
COc1ccc(-n2cc(C(=O)Nc3ccc(OC)cc3OC)nn2)cc1	1000
O=C(O)c1ccccc1Nc1cccc2c1C(=O)c1cccc(Nc3ccccc3C(=O)O)c1C2=O	1020
Cc1cccc(S(=O)(=O)Nc2cc(-c3cn4ccc(C)cc4n3)ccc2C)c1	704
CCCN1CCN(S(=O)(=O)c2cc(-c3nnc(C(C)C)o3)co2)CC1	618
CCCCNC(=O)CC1CCN(C(=O)c2[nH]c(C)c(C(=O)OC)c2C)CC1	689
O=C(c1ccoc1)N1CCCC1c1nc(-c2cccc(C(F)(F)F)c2)no1 (configuration not stated)	996
CCc1c(C)nc2ncnn2c1N1CCOCC1	653
O=C(NCCn1nc(-c2ccc(F)cc2)ccc1=O)Nc1cccs1	692
Cn1nc(C(=O)N2CCCCC2)c2c1CCN(C(=O)CCC(=O)NCC1CCCO1)C2 (configuration not stated)	608
CCCCN(C)C(=O)CN1C(=O)C2CCCCN2c2ccc(S(=O)(=O)N(CC)CC)cc21 (configuration not stated)	1010
COc1cccc(Cn2c(=O)c3ccnn3c3ccc(C(=O)O)cc32)c1	785
Cc1sc(C)c(S(=O)(=O)NCc2ccc(F)cc2)c1-c1cc(C(F)(F)F)on1	1160
COc1ccc(N2C(=O)CC(N3CCC(C(N)=O)CC3)C2=O)c(OC)c1 (configuration not stated)	578
Cc1ccc(-c2coc(-c3ccc(NC(=O)NCCc4ccccc4)cc3)n2)c(C)c1	1260
CSc1cccc(NC(=O)c2nnn(Cc3ccc(F)cc3)c2-n2cccc2)c1	1150
CNC(=O)N1CCC(C2CCN(C(=O)CCCC(=O)O)C2)CC1 (configuration not stated)	572
Cc1ccc(NS(=O)(=O)c2c(C)c(-c3nnc(C4CCC4)o3)n(C)c2C)cc1	918
CN1CCN(c2cc(-c3nc(-c4ccc(Cl)cc4)no3)c3ccccc3n2)CC1	881
O=c1n(Cc2ccc(F)cc2)nc2c(S(=O)(=O)N3CCCCC3)cccn12	887
O=C(CCNc1c(-c2cccc(F)c2)nc2cnccn12)NCc1ccccc1F	742
CC(C)CC(=O)Nc1ccc2nc(N3CCN(c4ccc(Cl)cc4)CC3)cc(C(=O)O)c2c1	746

Compound	RP-LC retention time [s]
Cc1ccc(CNC(=O)C2(C)CN(S(C)(=O)=O)CC(=O)N2Cc2ccc(C)cc2)cc1 (configuration not stated)	899
COc1ccc(/C=C/c2nc(-c3cccc(-c4ccnn4C)c3)no2)cc1OC	1050
COc1ccc(CC(=O)Nc2nnc(SCc3ccccc3F)s2)cc1OC	824
N#Cc1ccccc1-c1cc(-c2ccccn2)cn(-c2ccccc2)c1=O	941
Cc1cccc(OCc2nc(C)c(C(=O)Nc3nc(-c4ccc(Cl)cc4)cs3)s2)c1	1360
CCOC(=O)c1[nH]c(C)c(CN(Cc2ccco2)C(=O)Nc2ccc(F)cc2)c1C	936
CC1=C(c2ccc(F)cc2)S(=O)(=O)N=C1N1CCC(NC(=O)c2ccoc2)CC1	747
CNC(=O)c1cc(C(=O)c2ccc3nc(Nc4cccc(C(F)(F)F)c4)[nH]c3c2)ccn1	747
COC(=O)c1ccc(NC(=O)C2c3cc(F)ccc3CCN2C(=O)OC)cc1 (configuration not stated)	850
CCOC(=O)c1c(C)c(CCC(=O)NCCN2CCOCC2)n(C)c1C	597
C[C@@H](O)[C@H]1C(=O)N2C(C(=O)OCOC(=O)C(C)(C)C)=C(SC3CN(C4=NCCS4)C3)[C@H](C)[C@H]12	732
COc1ccc(-c2csc(NC(=O)CS(=O)(=O)c3ccc(Cl)cc3)n2)cc1C	1080
CN(CCNC(=O)c1cc(=O)n(C)c2c1c(=O)n(C)c(=O)n2C)C1CCCCC1	624
CCOc1ccccc1NS(=O)(=O)c1cc(-c2c(C)noc2NC(C)=O)ccc1OC	798
COc1cccc(NC(=O)Cc2csc3nc(-c4ccc(OC)c(OC)c4)cn23)c1	780
CCOc1ccc(-c2ccc3nnc(SCC(=O)Nc4nc(C)cs4)n3n2)cc1	752
COC(=O)c1ccc(NC(=O)c2c(OC)cc(=O)n3c2CCCC3)cc1	678
CCc1nc2c(c(=O)n1CC(=O)Nc1cccc(OC)c1)CN(Cc1ccccc1)CC2	652
O=C(CSc1nnc2c3cc(-c4ccc(F)cc4)nn3ccn12)Nc1ccc(F)cc1Cl	940
Cn1ccnc1SCC(=O)Nc1nc(-c2ccc(Cl)cc2)cs1	690
O=c1[nH]c2ccc(NCc3ccccc3Cl)cc2[nH]1	641
O=C(Nc1c(-c2ccc(F)cc2)nc2ccccn12)c1cccc(Cl)c1	750

The next lines start with the values.

RP-LC retention time [s]	Compound
768	CN(CC1CCOCC1)C(=O)Nc1ccccc1Br
588	CN(C)c1ccc(CNC(=O)CCc2c(-c3ccc(Cl)cc3)nc3ccccn23)cc1
606	CCn1c(=O)c(C(=O)NC2CCN(Cc3ccccc3)CC2)nc2cccnc21
726	CN(C(=O)c1ccc(-c2cccc([N+](=O)[O-])c2)o1)C1CCS(=O)(=O)C1 (configuration not stated)
961	CCc1ccc(CNC(=O)c2cn(C)nc2S(=O)(=O)N2CCSCC2)cc1
766	O=C(O)CNS(=O)(=O)c1ccc(Cl)c(-c2nnc(-c3ccccc3)o2)c1
717	COc1ccccc1C(=O)NC1CCN(c2cc(-c3cccs3)[nH]n2)C1 (configuration not stated)
958	Cc1ccc(CNC(=O)N2CC=C(c3cn(C(C)C)c4ncccc34)CC2)cc1
963	Cn1ccc2cc(S(=O)(=O)N3CCC(C(=O)N4CCN(c5ccccc5)CC4)CC3)ccc21
664	CC(C)CN1CCN(C(=O)c2cc3c(s2)CCN(C(=O)c2ccc(Cl)cc2)C3)CC1
981	Cc1cc(C)cc(C(=O)NCc2ccc3c(c2)CCCN3C(=O)C2CCC2)c1
675	CN(C)c1nc2ncn3c(=O)n(CC(=O)NCc4ccc(F)cc4)nc3c2s1
631	CN(C)C(CNC(=O)c1cc(=O)c2cc(Cl)ccc2o1)c1cccs1 (configuration not stated)
684	O=C(NC1CC1)[C@@H]1C[C@H](Oc2ccccc2)CN1C(=O)C1CC1
877	CCc1ccc(NC(=O)N2CCC(n3cnc4cc(Cl)ccc4c3=O)CC2)cc1
668	O=C(C1CCN(c2nnc(-c3ccccc3)o2)CC1)N1CCOCC1
822	O=C(c1cc(-c2ccco2)on1)N1CCC2(CC1)OCCS2
614	CN(C)S(=O)(=O)c1ccc2c(c1)N(CC(=O)NCCCN1CCCC1)C(=O)C1CCCCN21 (configuration not stated)
844	CC1CC(=O)Nc2ccccc2N1C(=O)COc1ccc(Cl)cc1Cl (configuration not stated)
900	CC(C)Oc1ccc(CNC(=O)C2CCCN(c3ccc(=O)n(-c4ccc(F)cc4)n3)C2)cc1 (configuration not stated)
604	CS(=O)(=O)N1CCN(C(=O)CCn2nnc3ccccc3c2=O)CC1

RP-LC retention time [s]	Compound
608	CC(C)CN1CCN(C(=O)c2nnc(-c3ccc(S(=O)(=O)N(C)C)cc3)o2)CC1
669	Cn1nc(C2CCN(C(=O)c3ccc4ccccc4n3)CC2)c2c1CCOC2
560	COC(=O)c1cc2c(=O)n(CCN3CCOCC3)ccc2nc1C
1090	CCc1nc(-c2csc(S(=O)(=O)N3CCCC(C(=O)Nc4cc(C)ccc4C)C3)c2)no1 (configuration not stated)
910	O=C(C1CCN(c2nc3ccc(-c4ccccc4)nc3s2)CC1)N1CCCC1
746	CC(=O)c1cccc(NC(=O)CN2C(=O)NC3(CCC(C)CC3)C2=O)c1 (configuration not stated)
734	O=C(N[C@H]1C[C@@H]2C[C@H]1CN2C(=O)NCCc1ccccc1)c1ccccc1
839	CCC(C)(C)C(=O)N1CCCC1Cc1noc(-c2cccnc2)n1 (configuration not stated)
757	CC(C)(Cc1c[nH]c2ccccc12)NCC(O)COc1ccccc1C#N (configuration not stated)
725	CN(C)CC1CN(C(=O)c2c[nH]c3ccccc23)CC12CCOCC2 (configuration not stated)
942	Cc1ccccc1CNS(=O)(=O)c1cc2c(s1)CCN(C(=O)C1CCC1)C2
747	CN1CC(=O)N(CC(=O)N2CCN(c3cccc(Cl)c3)CC2)c2ccccc2C1=O
952	CC(C)(C)n1nc2c(c1NC(=O)c1nc3ccccc3s1)CSC2
1040	COc1ccc(OC)c(NC(=O)N2CCC3(CC2)Nc2ccccc2-n2cccc23)c1
1040	CCC(c1cccs1)N1C(=O)[C@H]2CN(S(=O)(=O)c3cccc(C)c3)C[C@H]2C1=O (some centres not stated)
719	COc1ccc(CNC(=O)CN2C(=O)NC3(CCCCC3)C2=O)cc1
610	O=C(NC1CCN(c2cc(N3CCOCC3)cnn2)C1)c1ccc(Cl)s1 (configuration not stated)
572	CN1CCN(c2ncncc2N2CCC(C(=O)NCc3ccc(F)cc3Cl)CC2)CC1
892	CC1CCC(NC(=O)Cn2nc(C(=O)N3CCCC3)c3ccccc32)CC1 (configuration not stated)
948	CN(C(=O)Cn1cnc2c(-c3ccc(F)cc3)csc2c1=O)c1ccccc1
926	CCOC(=O)C1CCN(C(c2cccnc2)c2c(NC(=O)c3ccco3)sc(C)c2C)CC1 (configuration not stated)
